Data on 28 compounds can be found in patent US12577228B2, “Dihydrocyclopenta-isoquinoline-sulfonamide derivatives compounds” (UCB Biopharma SRL, priority 2019, dated 2026).

pIC50: −log10 of the molar value.

One may read the pIC50 as −log10 of the IC50, conventionally taken in molar units.

This experiment concerns the target T1, IgE-Tb / soluble IgE receptor FcεRIα with a Y131A mutation (Homo sapiens, UniProt P01854, N146Q/N252Q).
T1 construct: fused on or other part: Terbium chelate (LanthaScreen amine-reactive) on IgE-Fc; Alexa Fluor 488 hydrazide on the oxidised glycans of sFcεRIα; Both are labels and no part of the key
As to the kind of experiment: in vitro FRET assay: binding of IgE-Tb to receptor FcεRIα-Y131A-AF488 and its inhibition by compounds. The settings on record: 5 nM IgE-Tb, 25 nM FcεRIα-Y131A-AF488, 2 hours at room temperature; read-out: FRET IC50 range.

T1 sequence (P01854 104-427 N146Q/N252Q): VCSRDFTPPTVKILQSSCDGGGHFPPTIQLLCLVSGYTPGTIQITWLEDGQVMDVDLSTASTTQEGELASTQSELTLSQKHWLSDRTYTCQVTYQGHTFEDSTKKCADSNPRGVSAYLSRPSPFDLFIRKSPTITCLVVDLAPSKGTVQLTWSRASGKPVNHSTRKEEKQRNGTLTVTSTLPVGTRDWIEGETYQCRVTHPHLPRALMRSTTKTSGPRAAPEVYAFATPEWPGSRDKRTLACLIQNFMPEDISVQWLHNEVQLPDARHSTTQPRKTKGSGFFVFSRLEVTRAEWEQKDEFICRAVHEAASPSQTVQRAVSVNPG
T1 sequence (P12319 26-201 Y156A partner): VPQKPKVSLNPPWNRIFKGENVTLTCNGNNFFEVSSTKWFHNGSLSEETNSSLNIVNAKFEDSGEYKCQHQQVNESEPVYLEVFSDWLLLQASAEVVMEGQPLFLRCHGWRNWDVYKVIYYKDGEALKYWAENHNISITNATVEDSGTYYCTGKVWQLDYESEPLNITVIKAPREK

On to `Cn1ncc(NC2Cc3cc4c(F)nc(C5CC5)cc4c(S(=O)(=O)NCC(C)(C)F)c3C2)cc1=O` (stereo not shown) [Example 29, 3-cyclopropyl-1-fluoro-N-(2-fluoro-2-methyl-propyl)-7-[(1-methyl-6-oxo-pyridazin-4-yl)amino]-7,8-dihydro-6H-cyclopenta[g]isoquinoline-5-sulfonamide], for which the pIC50 is 7.30 to 8.00.
The result for `CC(C)(F)CNS(=O)(=O)c1c2c(cc3cnc(C4CC4)cc13)C[C@@H](Nc1cnc(C3(O)COC3)nc1)C2` [Example 30, (7R)-3-cyclopropyl-N-(2-fluoro-2-methylpropyl)-7-[[2-(3-hydroxyoxetan-3-yl)pyrimidin-5-yl]amino]-7,8-dihydro-6H-cyclopenta[g]isoquinoline-5-sulfonamide] reads 7.30 to 8.00.
The result for `Cc1nc(-c2ccc(N[C@@H]3Cc4cc5cnc(C6CC6)cc5c(S(=O)(=O)NCC(C)(C)F)c4C3)cn2)no1` [Example 31, (7R)-3-cyclopropyl-N-(2-fluoro-2-methylpropyl)-7-[[6-(5-methyl-1,2,4-oxadiazol-3-yl)pyridin-3-yl]amino]-7,8-dihydro-6H-cyclopenta[g]isoquinoline-5-sulfonamide] reads 8.00 to 9.00; that for `CC(C)(F)CNS(=O)(=O)c1c2c(cc3cnc(C4CC4)cc13)C[C@@H](Nc1ccc(Cl)nc1)C2` [Example 32, (7R)-7-[(6-chloropyridin-3-yl)amino]-3-cyclopropyl-N-(2-fluoro-2-methylpropyl)-7,8-dihydro-6H-cyclopenta[g]isoquinoline-5-sulfonamide], 7.30 to 8.00; that for `Cc1ccc2c(C(=O)N[C@@H]3Cc4cc5cnc(C6CC6)cc5c(S(=O)(=O)NCC(C)(C)F)c4C3)c[nH]c2c1` [Example 33, N-[(7R)-3-cyclopropyl-5-[(2-fluoro-2-methylpropyl)sulfamoyl]-7,8-dihydro-6H-cyclopenta[g]isoquinolin-7-yl]-6-methyl-1H-indole-3-carboxamide], 7.30 to 8.00.
To `CC(C)(F)CNS(=O)(=O)c1c2c(cc3cnc(C4CC4)cc13)C[C@@H](NC(=O)c1ccc3[nH]nnc3c1)C2` [Example 34, N-[(7R)-3-cyclopropyl-5-[(2-fluoro-2-methylpropyl)sulfamoyl]-7,8-dihydro-6H-cyclopenta[g]isoquinolin-7-yl]-1H-benzotriazole-5-carboxamide] belongs 7.30 to 8.00; to `CC(C)(F)CNS(=O)(=O)c1c2c(cc3cnc(C4CC4)cc13)CC(Nc1ccc(S(C)(=N)=O)nc1)C2` (stereo not shown) [Example 35, 3-cyclopropyl-N-(2-fluoro-2-methylpropyl)-7-[[6-(methylsulfonimidoyl)pyridin-3-yl]amino]-7,8-dihydro-6H-cyclopenta[g]isoquinoline-5-sulfonamide], 7.30 to 8.00.
On to `Cc1noc(-c2ccc(N[C@@H]3Cc4cc5cnc(C6CC6)cc5c(S(=O)(=O)NCC(C)(C)F)c4C3)cn2)n1` [Example 36, (7R)-3-cyclopropyl-N-(2-fluoro-2-methylpropyl)-7-[[6-(3-methyl-1,2,4-oxadiazol-5-yl)pyridin-3-yl]amino]-7,8-dihydro-6H-cyclopenta[g]isoquinoline-5-sulfonamide], for which the pIC50 is 8.00 to 9.00.
Consider `Cc1nnc(-c2ccc(N[C@@H]3Cc4cc5cnc(C6CC6)cc5c(S(=O)(=O)NCC(C)(C)F)c4C3)cn2)o1` [Example 37, (7R)-3-cyclopropyl-N-(2-fluoro-2-methylpropyl)-7-[[6-(5-methyl-1,3,4-oxadiazol-2-yl)pyridin-3-yl]amino]-7,8-dihydro-6H-cyclopenta[g]isoquinoline-5-sulfonamide], for which the pIC50 was 8.00 to 9.00.
Regarding `CC(C)(F)CNS(=O)(=O)c1c2c(cc3cnc(C4CC4)cc13)C[C@@H](Nc1ccc(C3(O)COC3)nc1)C2` [Example 38, (7R)-3-cyclopropyl-N-(2-fluoro-2-methylpropyl)-7-[[6-(3-hydroxyoxetan-3-yl)pyridin-3-yl]amino]-7,8-dihydro-6H-cyclopenta[g]isoquinoline-5-sulfonamide], the pIC50 was 7.30 to 8.00.
To `CC(C)(F)CNS(=O)(=O)c1c2c(cc3cnc(C4CC4)cc13)C[C@@H](Nc1ccc(C(C)(C)O)nc1)C2` [Example 39, (7R)-3-cyclopropyl-N-(2-fluoro-2-methylpropyl)-7-[[6-(2-hydroxypropan-2-yl)pyridin-3-yl]amino]-7,8-dihydro-6H-cyclopenta[g]isoquinoline-5-sulfonamide] belongs 7.30 to 8.00; to `CC(C)(F)CNS(=O)(=O)c1c2c(cc3cnc(C4CC4)cc13)CC(NC1=CS(=O)(=O)CC1)C2` (stereo not shown) [Example 40, 3-cyclopropyl-7-[(1,1-dioxo-2,3-dihydrothiophen-4-yl)amino]-N-(2-fluoro-2-methylpropyl)-7,8-dihydro-6H-cyclopenta[g]isoquinoline-5-sulfonamide], 5.70 to 7.00; to `Cc1ccc(S(=O)(=O)c2cncc(N[C@@H]3Cc4cc5cnc(C6CC6)cc5c(S(=O)(=O)NCC(C)(C)F)c4C3)c2)cn1` [Example 43, (7R)-3-cyclopropyl-N-(2-fluoro-2-methylpropyl)-7-[[5-(6-methylpyridin-3-yl)sulfonylpyridin-3-yl]amino]-7,8-dihydro-6H-cyclopenta[g]isoquinoline-5-sulfonamide], 7.30 to 8.00.
To `CCNC(=O)NC1Cc2cc3cnc(C4CC4)cc3c(S(=O)(=O)NCC(C)C)c2C1` (stereo not shown) [Example 44, 1-[3-cyclopropyl-5-(2-methylpropylsulfamoyl)-7,8-dihydro-6H-cyclopenta[g]isoquinolin-7-yl]-3-ethylurea] belongs 7.30 to 8.00; to `CCNC(=O)NC1CCc2c1cc1cnc(C3CC3)cc1c2S(=O)(=O)NCC(C)C` (stereo not shown) [Example 45, 1-[3-cyclopropyl-5-(2-methylpropylsulfamoyl)-7,8-dihydro-6H-cyclopenta[g]isoquinolin-8-yl]-3-ethylurea], 5.70 to 7.00; to `CCNC(=O)NC1CCc2cc3cnc(C4CC4)cc3c(S(=O)(=O)NCC(C)C)c21` (stereo not shown) [Example 46, 1-[3-cyclopropyl-5-(2-methylpropylsulfamoyl)-7,8-dihydro-6H-cyclopenta[g]isoquinolin-6-yl]-3-ethylurea], 5.70 to 7.00.
Regarding `CC(C)CNS(=O)(=O)c1c2c(cc3cnc(C4CC4)cc13)C(O)CC2` (stereo not shown) [Example 47, 3-cyclopropyl-8-hydroxy-N-(2-methylpropyl)-7,8-dihydro-6H-cyclopenta[g]isoquinoline-5-sulfonamide], the pIC50 was 5.70 to 7.00.
The result for `CC(C)CNS(=O)(=O)c1c2c(cc3cnc(C4CC4)cc13)CCC2O` (stereo not shown) [Example 48, 3-cyclopropyl-6-hydroxy-N-(2-methylpropyl)-7,8-dihydro-6H-cyclopenta[g]isoquinoline-5-sulfonamide] reads 5.70 to 7.00.
With `CC(C)(F)CNS(=O)(=O)c1c2c(cc3cnc(C4CC4)cc13)CC1(COC(=O)N1)C2` (stereo not shown) [Example 49, 3′-cyclopropyl-N-(2-fluoro-2-methylpropyl)-2-oxospiro[1,3-oxazolidine-4,7′-6,8-dihydrocyclopenta[g]isoquinoline]-5′-sulfonamide], the pIC50 was 5.70 to 7.00.
For `CC(C)(F)CNS(=O)(=O)c1c2c(cc3cnc(C4CC4)cc13)CC(CO)(Nc1nncn1-c1cccnc1)C2` (stereo not shown) [Example 50, 3-cyclopropyl-N-(2-fluoro-2-methylpropyl)-7-(hydroxymethyl)-7-[(4-pyridin-3-yl-1,2,4-triazol-3-yl)amino]-6,8-dihydrocyclopenta[g]isoquinoline-5-sulfonamide], the pIC50 was 5.70 to 7.00.
The result for `CC(C)(F)CNS(=O)(=O)c1c2c(cc3cnc(C4CC4)cc13)CN(c1cccnc1N)C2` [Example 51, 2-(2-aminopyridin-3-yl)-7-cyclopropyl-N-(2-fluoro-2-methylpropyl)-1,3-dihydropyrrolo[3,4-g]isoquinoline-9-sulfonamide] reads 5.70 to 7.00; that for `CCNc1c(NC2Cc3cc4cnc(C5CC5)cc4c(S(=O)(=O)NCC(C)C)c3C2)c(=O)c1=O` (stereo not shown) [Example 53, 3-cyclopropyl-7-[[2-(ethylamino)-3,4-dioxocyclobuten-1-yl]amino]-N-(2-methylpropyl)-7,8-dihydro-6H-cyclopenta[g]isoquinoline-5-sulfonamide], 7.30 to 8.00; that for `CC(C)CNS(=O)(=O)c1c2c(cc3cnc(C4CC4)cc13)CC(C(=O)NCC(C)(C)C)C2` (stereo not shown) [Example 54, 3-cyclopropyl-N-(2,2-dimethylpropyl)-5-(2-methylpropylsulfamoyl)-7,8-dihydro-6H-cyclopenta[g]isoquinoline-7-carboxamide], 7.30 to 8.00.
The result for `CC(C)CNS(=O)(=O)c1c2c(cc3cnc(C4CC4)cc13)CC(NS(C)(=O)=O)C2` (stereo not shown) [Example 55, 3-cyclopropyl-7-(methanesulfonamido)-N-(2-methylpropyl)-7,8-dihydro-6H-cyclopenta[g]isoquinoline-5-sulfonamide] reads 7.00 to 7.30; that for `CC(C)(F)CNS(=O)(=O)c1c2c(cc3cnc(C4CC4)cc13)CC(c1nc3ccncc3[nH]1)C2` (stereo not shown) [Example 56, 3-cyclopropyl-N-(2-fluoro-2-methylpropyl)-7-(3H-imidazo[4,5-c]pyridin-2-yl)-7,8-dihydro-6H-cyclopenta[g]isoquinoline-5-sulfonamide], 7.00 to 7.30.
To `Cc1cc(Nc2nncn2C2Cc3cc4cnc(C5CC5)cc4c(S(=O)(=O)NCC(C)(C)F)c3C2)n(C)n1` (stereo not shown) [Example 57, 3-cyclopropyl-7-[3-[(2,5-dimethylpyrazol-3-yl)amino]-1,2,4-triazol-4-yl]-N-(2-fluoro-2-methylpropyl)-7,8-dihydro-6H-cyclopenta[g]isoquinoline-5-sulfonamide] belongs 5.70 to 7.00; to `CC(C)(F)CNS(=O)(=O)c1c2c(cc3cnc(C4CC4)cc13)CC(n1ccnc1NCC1CC1)C2` (stereo not shown) [Example 58, 3-cyclopropyl-7-[2-(cyclopropylmethylamino)imidazol-1-yl]-N-(2-fluoro-2-methylpropyl)-7,8-dihydro-6H-cyclopenta[g]isoquinoline-5-sulfonamide], 5.70 to 7.00; to `CCNC(=O)CN1Cc2cc3cnc(C4CC4)cc3c(S(=O)(=O)NCC(C)C)c2C1` [Example 59, 2-[7-cyclopropyl-9-(2-methylpropylsulfamoyl)-1,3-dihydropyrrolo[3,4-g]isoquinolin-2-yl]-N-ethylacetamide], 5.70 to 7.00.
